These results are taken from article PMC6270614 (Molecules, 2013).

In series [1] the target is human cannabinoid CB1 receptor (Homo sapiens, UniProt P21554). The series can be described thus: CB1 receptor radioligand ([3H]CP-55,940) displacement binding assay. Particulars: for inhibition at 1 µM: read-out: displacement of [3H]CP-55,940 in the preliminary screen (printed in the CB1 Ki column). As to the method:
In all cases, Ki values were calculated by applying the Cheng-Prusoff equation [34] to the IC50 values (obtained by GraphPad, GraphPad Software, Inc., La Jolla, CA, USA) for the displacement of the bound radioligand by increasing concentrations of the test compounds (after three separate experiments for each compound).
For orientation: Loss of bound radioactivity is the signal in a displacement assay; it reports binding, not function.

Setting [2] is: CB1 (Ki, nM), displacement of 0.5 nM [3H]CP-55,940, means ± SEM, n = 3, Cheng-Prusoff from IC50.
Where [3] appears, read: Experimental activity (pIC50, M), CoMFA training and test set input.
[4] abbreviates: IC50 (CB1 displacement), displacement of [3H]CP-55,940.

Each structure is given as a SMILES string. Like-named read-outs stand apart in the source and are kept apart here.

Chain of human cannabinoid CB1 receptor (P21554 whole entry): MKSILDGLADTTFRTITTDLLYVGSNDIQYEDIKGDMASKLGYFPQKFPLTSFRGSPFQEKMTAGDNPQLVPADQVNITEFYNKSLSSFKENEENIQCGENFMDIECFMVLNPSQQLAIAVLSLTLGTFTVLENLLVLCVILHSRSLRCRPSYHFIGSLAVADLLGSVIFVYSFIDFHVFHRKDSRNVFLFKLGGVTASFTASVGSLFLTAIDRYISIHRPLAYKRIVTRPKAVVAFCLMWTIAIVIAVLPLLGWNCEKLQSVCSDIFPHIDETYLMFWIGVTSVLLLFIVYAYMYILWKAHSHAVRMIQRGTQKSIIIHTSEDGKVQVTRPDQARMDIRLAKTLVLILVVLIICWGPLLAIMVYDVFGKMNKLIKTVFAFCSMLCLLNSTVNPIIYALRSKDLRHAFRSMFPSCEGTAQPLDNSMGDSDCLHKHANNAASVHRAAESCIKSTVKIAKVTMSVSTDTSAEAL

As to `O=C(c1ccc2ccccc2c1)n1c(-c2ccncc2)nc2cc(F)ccc21` [Compound 30, (5-Fluoro-2-(pyridin-4-yl)-1H-benzo[d]imidazol-1-yl)(naphthalen-2-yl)methanone], the melting point (in general, the temperature of the solid-liquid transition) fell in the range of 195.7 to 200.6 °C. Further, the Ki (commonly the dissociation constant of the complex between target and ligand, obtained from inhibition or displacement) in series [1] (setting [2]) was 1030 ± 57.9 nM. Moreover, the IC50 in series [1] (setting [3]) was 1880 nM.

`Cc1cc2nc(-c3ccncc3)n(C(=O)c3ccc4ccccc4c3)c2cc1C` [Compound 32, (5,6-Dimethyl-2-(pyridin-4-yl)-1H-benzo[d]imidazol-1-yl)(naphthalen-2-yl)methanone] came in with a melting point of 160.4 to 160.9 °C. In addition, the inhibition at 1 µM in series [1] was below 50%.

On to `c1ccc(-c2nc3ccccc3n2Cc2cccc3ccccc23)nc1` [Compound 33, 1-(Naphthalen-1-ylmethyl)-2-(pyridin-2-yl)-1H-benzo[d]imidazole], for which the melting point was 150.7 to 151.6 °C. The inhibition at 1 µM in series [1] was below 50%.

Take `Fc1ccc2c(c1)nc(-c1ccccn1)n2Cc1cccc2ccccc12` [Compound 34, 5-Fluoro-1-(naphthalen-1-ylmethyl)-2-(pyridin-2-yl)-1H-benzo[d]imidazole]: the melting point lay in the range of 155.7 to 155.9 °C. Further, in series [1], the inhibition at 1 µM is below 50%.

In turn, `Fc1ccc2nc(-c3ccccn3)n(Cc3cccc4ccccc34)c2c1` [Compound 35, 6-Fluoro-1-(naphthalen-1-ylmethyl)-2-(pyridin-2-yl)-1H-benzo[d]imidazole] registered a melting point of 160.7 to 161.1 °C. The inhibition at 1 µM in series [1] is below 50%.

With `Cc1cc2nc(-c3ccccn3)n(Cc3cccc4ccccc34)c2cc1C` [Compound 36, 5,6-Dimethyl-1-(naphthalen-1-ylmethyl)-2-(pyridin-2-yl)-1H-benzo[d]imidazole], the melting point lay within 155.5 to 156.1 °C. The molecule further yielded an inhibition constant Ki in series [1] (setting [2]) of 13 ± 1.1 nM. Further, the IC50 in series [1] (setting [3]) is 23.9 nM. For the same molecule, the IC50 in series [1] (setting [4]) is around 20 nM.

With `c1cncc(-c2nc3ccccc3n2Cc2cccc3ccccc23)c1` [Compound 37, 1-(Naphthalen-1-ylmethyl)-2-(pyridin-3-yl)-1H-benzo[d]imidazole], the melting point was 160.2 to 161.1 °C. Besides, in series [1] (setting [2]), the Ki amounted to 75.9 ± 16.6 nM. The same molecule showed an IC50 in series [1] (setting [3]) of 139 nM.

For the molecule `Fc1ccc2c(c1)nc(-c1cccnc1)n2Cc1cccc2ccccc12` [Compound 38, 5-Fluoro-1-(naphthalen-1-ylmethyl)-2-(pyridin-3-yl)-1H-benzo[d]imidazole], the melting point lay within 163.4 to 163.9 °C. The Ki in series [1] (setting [2]) was 98.2 ± 33.5 nM. Besides, in series [1] (setting [3]), the IC50 is 180 nM.

Molecule `Fc1ccc2nc(-c3cccnc3)n(Cc3cccc4ccccc34)c2c1` [Compound 39, 6-Fluoro-1-(naphthalen-1-ylmethyl)-2-(pyridin-3-yl)-1H-benzo[d]imidazole] gave a melting point of 156.1 to 157 °C. Moreover, the Ki in series [1] (setting [2]) is below 200 nM. This molecule also showed an IC50 in series [1] (setting [3]) of 0.979 nM. In series [1] (setting [4]), the IC50 was below 10 nM. Besides, the Ki in series [1] (read-out: CB1 (Ki), displacement of 0.5 nM [3H]CP-55,940, means ± SEM, n = 3, Cheng-Prusoff from IC50) amounted to 0.53 ± 0.9 nM.

Consider `Cc1cc2nc(-c3cccnc3)n(Cc3cccc4ccccc34)c2cc1C` [Compound 40, 5,6-Dimethyl-1-(naphthalen-1-ylmethyl)-2-(pyridin-3-yl)-1H-benzo[d]imidazole], for which the melting point was 141.4 to 142.1 °C. For the same molecule, the inhibition at 1 µM in series [1] is below 50%.

`c1ccc2c(Cn3c(-c4ccncc4)nc4ccccc43)cccc2c1` [Compound 41, 1-(Naphthalen-1-ylmethyl)-2-(pyridin-4-yl)-1H-benzo[d]imidazole] returned a melting point of 163.3 to 163.8 °C. In addition, in series [1] (CoMFA training and test set input, read-out: Experimental activity (pIC50) (converted)), the IC50 is 274 nM. In series [1] (read-out: CB1 (Ki)), the Ki turned out to be 149 ± 1.9 nM.

Take `Fc1ccc2c(c1)nc(-c1ccncc1)n2Cc1cccc2ccccc12` [Compound 42, 5-Fluoro-1-(naphthalen-1-ylmethyl)-2-(pyridin-4-yl)-1H-benzo[d]imidazole]: the melting point was in the range of 151.5 to 152.5 °C. The inhibition at 1 µM in series [1] was below 50%.
